Calls of active or inactive are those of the source. The calls are words filed in the database; no cut-off is given here.
Experiments:
Mu-type opioid receptor [1] = molecular target: T1, Mu-type opioid receptor (Homo sapiens, UniProt P35372); assay: Agonist activity at mu opioid receptor (unknown origin) expressed in human HEK293 cells assessed as […] in cAMP accumulation using [3H]-cAMP as substrate measured after 30mins by liquid scintillation counting method relative to control; assay type: functional, cell-based
Mus musculus [2] = assay: Antinociceptive activity in kunming mouse models assessed as effective dose after icv administration measured from 5 to 60 mins by warm water tail-flick assay; assay type: functional
Mus musculus [3] = assay: Antinociceptive activity in kunming mouse models assessed as maximum possible effect at 4 nmol, icv measured from 5 to 60 mins by warm water tail-flick assay relative to control; assay type: functional
[4] = Half life in Kunming mouse brain homogenate at 10^-2 mol/L by RP-HPLC analysis; assay type: ADME, tissue-based
[5] = Half life in Kunming mouse serum at 10^-2 mol/L by RP-HPLC analysis; assay type: ADME, cell-free
Mu-type opioid receptor [6] = molecular target: T1, Mu-type opioid receptor; assay: Agonist activity at mu opioid receptor (unknown origin) expressed in human HEK293 cells assessed as […] in cAMP accumulation using [3H]-cAMP as substrate measured after 30mins by liquid scintillation counting method; assay type: functional, cell-based
Mu-type opioid receptor [7] = molecular target: Mu-type opioid receptor (Rattus norvegicus, UniProt P33535); assay: Displacement of [3H]-DAMGO from Wistar rat mu opioid receptor incubated for 1 hr by liquid scintillation counting method
[8] = molecular target: Delta-type opioid receptor (Rattus norvegicus, UniProt P33533); assay: Displacement of [3H]-DPDPE from Wistar rat delta opioid receptor incubated for 3 hrs by liquid scintillation counting method
Mus musculus [9] = assay: Antinociceptive activity in kunming mouse models assessed as maximum possible effect at 0.4 nmol, icv measured from 5 to 60 mins by warm water tail-flick assay relative to control; assay type: functional
Mus musculus [10] = assay: Antinociceptive activity in kunming mouse models of formalin-induced hyperalgesia assessed as reduction in time spent on paw biting inflammatory phase at 0.04 nmol, icv measured during phase 1 at 0 to 5 mins relative to control; assay type: functional; set-up: scale not given: the % may be the effect or the level left
Mus musculus [11] = assay: Antinociceptive activity in kunming mouse models of acetic-acid-induced writhing assessed as inhibition of writhing numbers at 0.04 nmol, icv pretreated for 5 mins followed by acetic-acid treatment and measured for 20 mins relative to control; assay type: functional; set-up: scale not given: the % may be the effect or the level left
Mus musculus [12] = assay: Antinociceptive activity in icv administered kunming mouse models of formalin-induced hyperalgesia assessed reduction in time spent on paw shaking during inflammatory phase 2 at 15 to 30 mins; assay type: functional; set-up: scale not given: the % may be the effect or the level left
[13] = Toxicity in kunming mouse assessed as reduction in number of fecal pellet at 1 to 10 mg/kg, iv after 1 hr; assay type: organism-based; conditions: in vivo
Mus musculus [14] = assay: Antinociceptive activity in kunming mouse models assessed as effective dose after iv administration by warm water tail-flick assay; assay type: functional
Mus musculus [15] = assay: Antinociceptive activity in kunming mouse models assessed as maximum possible effect at 10 mg/kg, iv measured after 5 to 60 mins co-treated with naloxone by warm water tail-flick assay; assay type: functional, organism-based
Mus musculus [16] = assay: Antinociceptive activity in kunming mouse models of formalin-induced hyperalgesia assessed as reduction in time spent on paw biting inflammatory phase at 4 nmol, icv measured during phase 2 at 15 to 30 mins relative to control; assay type: functional; set-up: scale not given: the % may be the effect or the level left
Mus musculus [17] = assay: Antinociceptive activity in icv administered kunming mouse models of formalin-induced hyperalgesia assessed reduction in pain response of paw licking during inflammatory phase 2 at 15 to 30 mins; assay type: functional, organism-based
Mus musculus [18] = assay: Antinociceptive activity in kunming mouse models of formalin-induced hyperalgesia assessed as reduction in pain response of paw licking inflammatory phase at 4 nmol, icv measured during phase 1 at 0 to 5 mins relative to control; assay type: functional; set-up: scale not given: the % may be the effect or the level left
Mus musculus [19] = assay: Antinociceptive activity in kunming mouse models of formalin-induced hyperalgesia assessed as reduction in time spent on paw biting inflammatory phase at 4 nmol, icv measured during phase 1 at 0 to 5 mins relative to control; assay type: functional; set-up: scale not given: the % may be the effect or the level left
Mus musculus [20] = assay: Antinociceptive activity in kunming mouse models of acetic-acid-induced writhing assessed as inhibition of writhing numbers at 3 mg/kg, iv pretreated for 5 mins followed by acetic-acid treatment and measured for 20 mins; assay type: functional, organism-based
Mus musculus [21] = assay: Antinociceptive activity in iv dosed kunming mouse models of formalin-induced hyperalgesia assessed as reduction in pain response of paw licking measured up to 60 mins; assay type: functional, organism-based
[22] = Toxicity in kunming mouse assessed as reduction in fecal dry weight at 1 to 10 mg/kg, iv after 1 hr; assay type: organism-based; conditions: in vivo
Mus musculus [23] = assay: Antinociceptive activity in kunming mouse models of formalin-induced hyperalgesia assessed as reduction in pain response of paw licking inflammatory phase at 4 nmol, icv measured during phase 2 at 15 to 30 mins relative to control; assay type: functional; set-up: scale not given: the % may be the effect or the level left
Mus musculus [24] = assay: Antinociceptive activity in kunming mouse models of formalin-induced hyperalgesia assessed as reduction in pain response of paw licking inflammatory phase at 0.04 nmol, icv measured during phase 1 at 0 to 5 mins relative to control; assay type: functional; set-up: scale not given: the % may be the effect or the level left
Mus musculus [25] = assay: Antinociceptive activity in kunming mouse models of formalin-induced hyperalgesia assessed as reduction in time spent on paw shaking inflammatory phase at 4 nmol, icv measured during phase 1 at 0 to 5 mins relative to control; assay type: functional; set-up: scale not given: the % may be the effect or the level left
[26] = Neurotoxicity in kunming mouse models assessed as effect in locomotor activity at 10 mg/kg,iv measured up to 60 mins by rotarod test; assay type: toxicity, organism-based; conditions: in vivo, 1 h
Mus musculus [27] = assay: Antinociceptive activity in icv administered kunming mouse models of formalin-induced hyperalgesia assessed reduction in time spent on paw biting during inflammatory phase 2 at 15 to 30 mins; assay type: functional; set-up: scale not given: the % may be the effect or the level left
Mus musculus [28] = assay: Antinociceptive activity in kunming mouse models assessed as maximum possible effect at 3 mg/kg, iv measured after 5 to 60 mins by warm water tail-flick assay; assay type: functional
Mus musculus [29] = assay: Antinociceptive activity in kunming mouse models of formalin-induced hyperalgesia assessed as reduction in time spent on paw shaking inflammatory phase at 0.04 nmol, icv measured during phase 1 at 0 to 5 mins relative to control; assay type: functional; set-up: scale not given: the % may be the effect or the level left
Mus musculus [30] = assay: Antinociceptive activity in kunming mouse models of formalin-induced hyperalgesia assessed as reduction in time spent on paw shaking inflammatory phase at 4 nmol, icv measured during phase 2 at 15 to 30 mins relative to control; assay type: functional; set-up: scale not given: the % may be the effect or the level left

Sequence of Delta-type opioid receptor (P33533 whole entry): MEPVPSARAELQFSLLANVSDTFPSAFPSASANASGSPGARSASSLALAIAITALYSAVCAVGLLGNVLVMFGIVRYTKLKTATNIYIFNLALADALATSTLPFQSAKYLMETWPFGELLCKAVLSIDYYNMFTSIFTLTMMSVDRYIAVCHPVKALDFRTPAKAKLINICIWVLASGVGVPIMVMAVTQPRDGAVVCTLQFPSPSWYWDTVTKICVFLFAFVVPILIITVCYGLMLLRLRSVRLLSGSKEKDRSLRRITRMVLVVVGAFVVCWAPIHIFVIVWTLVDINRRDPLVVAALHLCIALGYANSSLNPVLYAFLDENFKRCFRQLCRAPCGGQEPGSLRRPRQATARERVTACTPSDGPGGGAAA
T1 sequence (P35372 whole entry): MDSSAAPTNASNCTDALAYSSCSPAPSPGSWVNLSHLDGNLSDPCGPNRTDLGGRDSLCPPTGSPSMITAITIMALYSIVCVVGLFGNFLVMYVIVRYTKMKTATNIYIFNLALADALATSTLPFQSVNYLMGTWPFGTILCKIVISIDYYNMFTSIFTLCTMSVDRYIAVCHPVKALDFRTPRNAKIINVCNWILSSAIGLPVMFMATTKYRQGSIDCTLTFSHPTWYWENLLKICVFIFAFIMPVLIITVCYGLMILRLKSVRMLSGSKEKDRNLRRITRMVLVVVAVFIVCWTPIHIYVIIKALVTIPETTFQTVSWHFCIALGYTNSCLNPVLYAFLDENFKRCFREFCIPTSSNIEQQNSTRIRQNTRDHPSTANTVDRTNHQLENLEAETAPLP
Sequence of Mu-type opioid receptor (Rattus norvegicus, UniProt P33535) (P33535 whole entry): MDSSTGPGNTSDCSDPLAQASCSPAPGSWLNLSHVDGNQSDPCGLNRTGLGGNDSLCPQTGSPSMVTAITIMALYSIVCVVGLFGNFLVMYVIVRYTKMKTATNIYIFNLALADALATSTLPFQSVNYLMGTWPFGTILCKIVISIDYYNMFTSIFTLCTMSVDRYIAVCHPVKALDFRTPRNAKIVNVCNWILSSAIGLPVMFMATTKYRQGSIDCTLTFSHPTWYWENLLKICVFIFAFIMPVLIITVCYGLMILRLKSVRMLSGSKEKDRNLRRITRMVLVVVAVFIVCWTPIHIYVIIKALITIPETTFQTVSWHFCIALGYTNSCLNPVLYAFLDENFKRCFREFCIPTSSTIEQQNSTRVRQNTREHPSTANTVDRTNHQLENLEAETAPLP

## NC(=O)[C@H](Cc1ccccc1)NC(=O)[C@H](Cc1ccccc1)NC(=O)[C@@H]1CCCN1C(=O)[C@@H](N)Cc1ccc(O)cc1 [ENDOMORPHIN 2]
Mu-type opioid receptor [1]
  Emax: 66.5%
Mus musculus [2]
  ED50: 0.96 nmol
Mus musculus [3]
  Activity: 100%
[4]
  half-life: 0.207 h
[5]
  half-life: 0.212 h

## C=C(C(N)=O)[C@@H](NC(=O)[C@H](Cc1c[nH]c2ccccc12)NC(=O)[C@@H](CNC(C)=O)NC(=O)[C@@H](N)Cc1ccc(O)cc1)c1ccco1
Mu-type opioid receptor [6]
  EC50: 0.272 µM
Mu-type opioid receptor [1]
  Emax: 73.2%
Mu-type opioid receptor [7]
  Ki: 0.00454 µM
[8]
  Ki: > 10 µM

## NC(=O)[C@H](Cc1ccccc1)NC(=O)[C@H](Cc1c[nH]c2ccccc12)NC(=O)[C@@H]1CCCN1C(=O)[C@@H](N)Cc1ccc(O)cc1 [ENDOMORPHIN-1]
Mus musculus [9]
  MPE: 42.1%
Mus musculus [3]
  Activity: 100%

## C=C(C(N)=O)[C@@H](NC(=O)[C@H](Cc1ccccc1)NC(=O)[C@@H](CNC(C)=O)NC(=O)[C@@H](N)Cc1ccc(O)cc1)c1ccco1
Mu-type opioid receptor [6]
  EC50: 1.36 µM
Mu-type opioid receptor [1]
  Emax: 78.2%
Mu-type opioid receptor [7]
  Ki: 0.0224 µM
[8]
  Ki: > 10 µM

## C=C(C(N)=O)[C@@H](NC(=O)[C@H](Cc1ccccc1)NC(=O)[C@@H](CCCNC(N)=O)NC(=O)[C@@H](N)Cc1ccc(O)cc1)c1ccco1
Mus musculus [9]
  MPE: 84%
Mu-type opioid receptor [6]
  EC50: 0.128 µM
Mu-type opioid receptor [1]
  Emax: 76.7%
Mus musculus [10]
  Activity: 100%
Mus musculus [11]
  Activity: 100%
Mu-type opioid receptor [7]
  Ki: 0.00872 µM
Mus musculus [12]
  Activity: 100%
[13]
  Activity: Toxic
Mus musculus [2]
  ED50: 0.043 nmol
Mus musculus [14]
  ED50: 3.84 nmol
Mus musculus [15]
  Activity: inactive
Mus musculus [16]
  Activity: 100%
Mus musculus [17]
  Activity: Dose-dependent effect
Mus musculus [18]
  Activity: 100%
Mus musculus [19]
  Activity: 100%
Mus musculus [20]
  Activity: Active
Mus musculus [21]
  Activity: Dose-dependent effect
[22]
  Activity: Toxic
Mus musculus [23]
  Activity: 100%
Mus musculus [24]
  Activity: 100%
Mus musculus [25]
  Activity: 100%
[26]
  Activity: Non-Toxic
Mus musculus [3]
  Activity: 100%
Mus musculus [27]
  Activity: 100%
Mus musculus [28]
  MPE: 34.8%
[8]
  Ki: > 10 µM
[4]
  half-life: > 5 h
[5]
  half-life: > 5 h
Mus musculus [29]
  Activity: 100%
Mus musculus [30]
  Activity: 100%

## CN1CC[C@]23c4c5ccc(O)c4O[C@H]2[C@@H](O)C=C[C@H]3[C@H]1C5 [MORPHINE]
Mus musculus [28]
  MPE: 53.6%

## C=C(C(N)=O)[C@@H](NC(=O)[C@H](Cc1c[nH]c2ccccc12)NC(=O)[C@@H](CCCN)NC(=O)[C@@H](N)Cc1ccc(O)cc1)c1ccco1
Mu-type opioid receptor [6]
  EC50: 0.0893 µM
Mu-type opioid receptor [1]
  Emax: 65.6%
Mu-type opioid receptor [7]
  Ki: 0.437 µM
[8]
  Ki: 0.32 µM

## C=C(C(N)=O)[C@@H](NC(=O)[C@H](Cc1c[nH]c2ccccc12)NC(=O)[C@@H](CCCNC(=N)N)NC(=O)[C@@H](N)Cc1ccc(O)cc1)c1ccco1
Mus musculus [9]
  MPE: 94.7%
Mu-type opioid receptor [6]
  EC50: 0.221 µM
Mu-type opioid receptor [1]
  Emax: 62.7%
Mus musculus [10]
  Activity: 100%
Mus musculus [11]
  Activity: 100%
Mu-type opioid receptor [7]
  Ki: 0.0049 µM
Mus musculus [12]
  Activity: 100%
Mus musculus [2]
  ED50: 0.025 nmol
Mus musculus [16]
  Activity: 100%
Mus musculus [17]
  Activity: Dose-dependent effect
Mus musculus [18]
  Activity: 100%
Mus musculus [19]
  Activity: 100%
Mus musculus [23]
  Activity: 100%
Mus musculus [24]
  Activity: 100%
Mus musculus [25]
  Activity: 100%
Mus musculus [3]
  Activity: 100%
Mus musculus [27]
  Activity: 100%
[8]
  Ki: 0.955 µM
[4]
  half-life: > 5 h
[5]
  half-life: > 5 h
Mus musculus [29]
  Activity: 100%
Mus musculus [30]
  Activity: 100%

— ChEMBL document CHEMBL4627340, “Design, synthesis, and biological activity of new endomorphin analogs with multi-site modifications” (Bioorg Med Chem, 2020)
